Patent US20260159474A1, “Aminoindane Compounds and Compositions and Methods of Their Therapeutic Use” (Solvonis Therapeutics Ireland Holdings Limited, priority 2021, published 2026)
Where “and” joins values, the source holds several entries; their conditions need not be identical. Equal entries are not always repeated. Where two headings read alike, the source gives them in different places.

Tests used:
[1] = In vivo pharmacokinetics and brain penetration in rats after IV administration; conditions: rat; for Kp at 2 h: 2 hours post-administration, read-out: brain to plasma ratio; for Vd: read-out: Vss
Experimental: Group 1: Therapeutic compounds were administered via the IV route to three rats at a target dose level of 0.5 mg/kg. Blood and brain samples were collected at 2 h after IV administration. Group 2: Therapeutic compounds were administered via the IV route to three rats (brain penetration group) at a target dose level of 0.5 mg/kg. Blood and brain samples were collected at 2 h after IV administration. Group 3: Therapeutic compounds were orally administered to three rats at a target dose level of 1 mg/kg.
All test formulations were prepared on the day of administration prior to dosing, stored at room temperature, and used as soon as possible. Formulations were prepared and administered by volume IV dosing. Actual body weights were determined on the day of dose administration, and the dose volumes were adjusted to the weight of the animal at the time of dose administration.
Blood was collected into K3 EDTA tubes at each of the following time points post-administration:
Group 1 (IV): 0.083, 0.33, 1, 2, 4, 6, 8, and 24 hours after dosing Group 2 (IV): 2 hours after dosing for terminal brain analysis
All blood samples were thoroughly and gently mixed following collection and placed on wet ice. Within 0.5 h of collection, blood was centrifuged (3000 g for 10 minutes at approximately 4° C.). Within 0.5 hours, 20 μL of each plasma sample was transferred into micronic tubes containing 80 μL of 0.1N Hepes buffer (pH 7.0-7.5). Residual plasma was transferred in micronic tubes as a second aliquot.
Brain specimens were diluted with 4 volumes of 0.1 N Hepes buffer and homogenized using the Precellys system. Blood and brain samples were assayed using an optimized method based on protein precipitation with acetonitrile followed by HPLC/MS-MS analysis. Given the unknown stability of the analytes in blood and brain, calibration standards (CS) and quality control samples (QC) were prepared in blood and brain samples on the day of dosing and stored together with study samples. It is assumed that this procedure accounted for any possible analyte degradation.
Study samples, CS, QC, and blanks were spiked with an internal standard (IS), to improve the precision of the assay. Study samples were analyzed together with CS, QC and blank samples (including double blanks). From the calibration curve, the linear range of the analytical method was determined and the lower/upper limits of quantitation were specified.
The results of blood and brain specimens were subjected to non-compartmental pharmacokinetic analysis using Phoenix WinNonlin 6.3, with the following parameters reported: Calculated concentration of test items in the corresponding formulation (expressed as mg/mL), dose levels (expressed as mg/kg) for each compound, actual collection times (expressed as hh: mM), blood concentrations (expressed as ng/ml) for each compound, brain concentrations (expressed as ng/g) for each compound, PK parameters (iv: Cmax, AUC, CLp, Vss, t1/2, if applicable; oral (PO): Cmax, tmax, AUC, F %, Fa %, Eh, AUC BB ratio, if applicable) for each compound, and abnormal clinical signs and relevant findings, if any.

[2] = test system: extracellular serotonin (5-HT) in the nucleus accumbens (NAcc); experiment: In vivo microdialysis in rat nucleus accumbens, serotonin; parameters: species or system Sprague Dawley rats; conditions: 7 mg/kg I.P.; for peak 5-HT level: baseline = 100%; for Serotonin (5-HT) level (% from baseline): rat NAcc
Experimental: Methods and Procedure: This study was conducted in compliance with previously described procedures to assure data integrity, adherence to GLP regulations, and standard preclinical study and surgery procedures. The in vivo microdialysis technique was applied to measure the over-time variations of DA, 5-HT, and NE extracellular (EC) concentrations in conscious, freely-moving Sprague Dawley rats. Levels of the neurotransmitters in microdialysis samples were determined using LC-MS/MS analysis. The experiment was also conducted with MDMA for comparative purposes.
As it relates to cannula implantation, the rats were anesthetized with isoflurane 4% in oxygen (2-2.5 L/min), then the isoflurane concentration 2-2.5% was maintained via a nose cone adapted to the stereotaxic apparatus. The rats were treated with meloxicam (0.2 mg/kg, subcutaneously, sc; Meloxidolor) and amoxicilline (150 mg/kg, sc, Betamox LA). The skull was then shaved and disinfected. Rats were then placed in a stereotaxic apparatus for small animals. One vertical guide cannula was inserted through a 1 mm hole drilled on the exposed skull. Coordinates, with respect to the bregma to target specific brain areas, followed indications from stereotaxic atlas of the rat brain. Specifically a guide cannula (MAB 4.12.IC, Agn Tho's AB, Lidinga, Sweden) was inserted in the NAcc (anteroposterior+1.6; lateral −1.6; dorsoventral −6.0). The guide cannula was then secured with dental cement and 2-4 screws. At the end of the surgery the animal was isolated in a single cage during recovery, for a period of at least one week, during which animal health conditions were checked twice daily and the weight recorded twice a week. Animals continued to be housed singly throughout the experiment. One day before the experiment the cannula stylet was removed and a microdialysis probe with a dialyzing length of 2 mm (MAB 4.12.2 Cu, Agn Tho's AB, Lidingo, Sweden) was inserted. Probes can be re-used 2 times for 2 experimental sessions after appropriate cleaning with fresh milliQ water.
Post-surgery, the rats were maintained in a heating chamber prior to waking up in order to avoid hypothermia that could be caused by anaesthesia. 5 mL of physiologic solution was subcutaneously administered immediately after surgery, and once/day for 2-3 days, if signs of dehydration are noticed. Meloxicam (Meloxidolor) 0.2 mg/kg was again administered subcutaneously the day after surgery as well as after 48 h after surgery together with Amoxicilline Long Acting (Betamox LA) 150 mg/kg. Health status and body weight was checked every day during the first week.
The animals were treated with the therapeutic compounds, and MDMA, or their vehicle (saline) according to a Latin square design over 5 separate experimental days (one day/week). The treatments were administered in a volume of 1 mL/kg intraperitoneally.
On the day of the experiment, each animal was taken into the laboratory in its home cage. Inlet tubing of the probe was attached to a dual quartz-lined two channel liquid swivel mounted on a low mass spring counterbalance arm which, in turn, was connected to a gas-tight syringe on a microinfusion pump. […] An equilibration period of about two hours of perfusion was allowed before collecting samples. Following the equilibration period, 4 basal samples were collected for each experimental animal followed by further 10 post-treatment samples. Samples were collected every 20 minutes (up to 3 hours and 20 minutes post-treatment) by means of a refrigerated auto-sampler (Univentor 820 Microsampler, AgnTho's, Sweden) maintained at +8 “C. At the end of all experimental sessions, 2 μL of 0.1% methylene blue solution was injected through the microdialysis probe, animals were euthanized, and their brains removed to confirm the correct probe-position.
As mentioned, the concentration of DA, 5-HT and NE in CSF samples were determined using an optimized method based on LC-MS/MS analysis. […]

[3] = brain and plasma, 0.5 mg/kg, IV
[4] = plasma, IV, 0.5 mg/kg, read-out: Clearance
[5] = plasma, IV, 0.5 mg/kg, read-out: Cmax

Structure (SMILES)	Kp at 2 h [1, 3]	AUC(0-inf) ([1]; plasma, IV, 0.5 mg/kg) [ng·h/mL]	AUC(0-t) ([1]; plasma, IV, 0.5 mg/kg) [ng·h/mL]	half-life ([1]; plasma, IV, 0.5 mg/kg) [min]	clearance [1, 4] [mL/min/kg]	Cmax [1, 5] [ng/mL]	Vd ([1]; plasma, IV, 0.5 mg/kg) [L/kg]	Clast ([1]; IV, 0.5 mg/kg) [ng/mL]	time of peak 5-HT level ([2]; rat NAcc microdialysis) [min]	Serotonin (5-HT) level (% from baseline) ([2]; 0 min (basal sample)) [%]	Serotonin (5-HT) level (% from baseline) ([2]; 20 min post-admin) [%]	Serotonin (5-HT) level (% from baseline) ([2]; 40 min post-admin) [%]	Serotonin (5-HT) level (% from baseline) ([2]; 60 min post-admin) [%]	Serotonin (5-HT) level (% from baseline) ([2]; 80 min post-admin) [%]	Serotonin (5-HT) level (% from baseline) ([2]; 100 min post-admin) [%]	Serotonin (5-HT) level (% from baseline) ([2]; 120 min post-admin) [%]	Serotonin (5-HT) level (% from baseline) ([2]; 140 min post-admin) [%]	Serotonin (5-HT) level (% from baseline) ([2]; 160 min post-admin) [%]	Serotonin (5-HT) level (% from baseline) ([2]; 200 min post-admin) [%]	Serotonin (5-HT) level (% from baseline) ([2]; −20 min (basal sample)) [%]	other results
COC(=O)c1ccc2c(c1)CC(N)C2 (stereo not shown) [CMP-405, 2-aminoindane-5-methylcarboxylate]	2.12	334	330	19.8	25.5	808	0.602	8.08	60	97	114	353	289	182	157	140	115	113	105	103	Tlast ([1]; IV, 0.5 mg/kg): 2 h; time at which 5-HT levels returned to baseline ([2]; rat NAcc microdialysis): 180 min; peak 5-HT level ([2]; rat NAcc microdialysis): 289%; Serotonin (5-HT) level (% from baseline) ([2]; 180 min post-admin): 100%
CNC(C)Cc1ccc2c(c1)OCO2 (stereo not shown) [MDMA]									60	98	135	2000	2232	1780	1545	1472	1255	1083	871	102	AUCinf ([1]; IV, 1 mg/kg): 384 ng·h/mL; AUClast ([1]; IV, 1 mg/kg): 367 ng·h/mL; Clast ([1]; IV, 1 mg/kg): 12.1 ng/mL; Cmax ([1]; IV, 1 mg/kg): 625 ng/mL; T1/2 ([1]; IV, 1 mg/kg): 57.2 min; Tlast ([1]; IV, 1 mg/kg): 4 h; Vss ([1]; IV, 1 mg/kg): 3.02 L/kg; clearance ([1]; IV, 1 mg/kg): 45.6 mL/min/kg; peak 5-HT level ([2]; rat NAcc microdialysis): 2232%; Serotonin (5-HT) level (% from baseline) ([2]; 180 min post-admin, 7 mg/kg): 980% and 972%
COc1ccc2c(c1)CC(N)C2 (stereo not shown) [MEAI, 5-methoxy-2-aminoindane]	2.21	788	773	29.6	10.6	1400	0.376	24.7	40	98	446	2365	2248	1391	1036	830	688	564	340	102	Kp uu at 2 h ([1]; brain and plasma, intravenous, 0.5 mg/kg, assuming free plasma concentration equals total plasma concentration): 0.71; Tlast ([1]; IV, 0.5 mg/kg): 3 h; peak 5-HT level ([2]; rat NAcc microdialysis, 7 mg/kg): 2365% and ~2500%; Serotonin (5-HT) level (% from baseline) ([2]; 180 min post-admin, 7 mg/kg): 470%
